Data: patent US8426437B2, “Pyrroloquinoline derivatives and their use as protein kinases inhibitors” (Pierre Fabre Medicament, priority 2005, dated 2013)
Structures can show the parent of a compound that is named as a salt.

Target: T1, RET (Homo sapiens, UniProt P07949)
T1 construct: purchased Upstate 14-570MG
Assay: Inhibition of RET kinase activity, recombinant RET method (Kinase-Glo)
Assay type: biochemical
Conditions: RET 2 μg/ml, poly-EY4 substrate, 20 μM ATP, two hours at 30° C.
How it was run: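 Recombinant RET at 2 μg/ml in 20 mM MOPS/NaOH pH 7.0, 1 mM EDTA, 5% glycerol, 0.01% Brij35, 0.1% 2-mercaptoethanol, 1 mg/ml BSA; compounds 10 nM–30 μM final.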

T1 sequence (P07949 29-1114): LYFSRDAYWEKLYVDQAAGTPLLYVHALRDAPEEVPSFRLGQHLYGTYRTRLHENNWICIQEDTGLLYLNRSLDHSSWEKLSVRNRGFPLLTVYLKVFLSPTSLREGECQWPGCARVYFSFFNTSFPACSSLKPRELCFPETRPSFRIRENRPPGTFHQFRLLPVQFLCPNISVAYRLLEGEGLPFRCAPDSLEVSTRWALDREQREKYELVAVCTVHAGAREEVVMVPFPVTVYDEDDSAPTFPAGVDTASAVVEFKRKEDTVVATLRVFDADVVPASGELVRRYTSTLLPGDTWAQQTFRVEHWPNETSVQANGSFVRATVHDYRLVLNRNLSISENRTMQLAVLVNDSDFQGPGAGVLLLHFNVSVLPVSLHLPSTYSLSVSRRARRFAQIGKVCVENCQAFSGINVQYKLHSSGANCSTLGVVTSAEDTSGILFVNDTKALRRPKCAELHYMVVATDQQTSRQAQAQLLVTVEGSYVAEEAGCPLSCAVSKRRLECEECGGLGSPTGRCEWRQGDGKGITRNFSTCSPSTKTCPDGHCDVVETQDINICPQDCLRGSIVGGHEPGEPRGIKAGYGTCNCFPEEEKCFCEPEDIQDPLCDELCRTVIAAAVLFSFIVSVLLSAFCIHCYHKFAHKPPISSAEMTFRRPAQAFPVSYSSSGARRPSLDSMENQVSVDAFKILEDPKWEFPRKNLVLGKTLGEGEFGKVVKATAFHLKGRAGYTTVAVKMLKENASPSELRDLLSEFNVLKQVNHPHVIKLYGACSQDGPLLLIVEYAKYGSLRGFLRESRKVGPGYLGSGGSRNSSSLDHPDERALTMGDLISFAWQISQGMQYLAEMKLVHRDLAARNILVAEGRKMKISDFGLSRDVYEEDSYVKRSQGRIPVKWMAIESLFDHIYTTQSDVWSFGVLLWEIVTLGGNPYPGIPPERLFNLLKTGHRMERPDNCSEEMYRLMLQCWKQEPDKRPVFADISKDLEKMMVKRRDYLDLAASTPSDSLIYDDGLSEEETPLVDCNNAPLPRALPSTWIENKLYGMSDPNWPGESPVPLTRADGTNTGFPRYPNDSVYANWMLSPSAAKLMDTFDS

SMILES | IC50 [µM]
CCOC(=O)c1c[nH]c2c(=O)[nH]c3ccc(C(C)=O)cc3c12 [Compound 101, 8-Acetyl-4-oxo-4,5-dihydro-3H-pyrrolo[2,3-c]quinoline-1-ethyl carboxylate] | 1 to 10
CCOC(=O)c1c[nH]c2c(=O)[nH]c3ccc(-c4ccc(NC(=O)OC(C)(C)C)cc4)cc3c12 [Compound 243, 8-(4-tert-Butoxycarbonylaminophenyl)-4-oxo-4,5-dihydro-3H-pyrrolo[2,3-c]quinoline-1-ethyl carboxylate] | 1 to 10
CCOC(=O)c1c[nH]c2c(=O)[nH]c3ccc(-c4csc(NNc5ccccc5)n4)cc3c12 [Compound 280, 4-Oxo-8-[2-(N′-phenyl-hydrazino)-thiazol-4-yl]-4,5-dihydro-3H-pyrrolo[2,3-c]quinoline-1-ethyl carboxylate] | 1 to 10
CCOC(=O)c1c[nH]c2c(=O)[nH]c3ccc(NS(=O)(=O)c4ccc5ccccc5c4)cc3c12 [Compound 54, 8-(Naphthalene-2-sulfonylamino)-4-oxo-4,5-dihydro-3H-pyrrolo[2,3-c]quinoline-1-ethyl carboxylate] | 10 to 100
CC(C)(C)OC(=O)N[C@H]1CCN(S(=O)(=O)c2ccc3[nH]c(=O)c4[nH]cc(C(=O)O)c4c3c2)C1 [Compound 165, (S)-8-(3-tert-Butoxycarbonylamino-pyrrolidine-1-sulfonyl)-4-oxo-4,5-dihydro-3H-pyrrolo[2,3-c]quinoline-1-carboxylic acid] | 10 to 100
CCCNC(=O)c1c[nH]c2c(=O)[nH]c3ccc(S(=O)(=O)N(C)C)cc3c12 [Compound 109, N-Propyl-8-dimethylsulfamoyl-4-oxo-4,5-dihydro-3H-pyrrolo[2,3-c]quinoline-1-carboxamide] | 10 to 100
CCCOC(=O)c1c[nH]c2c(=O)[nH]c3ccc(S(=O)(=O)N(C[C@@H](C)NC(=O)OC(C)(C)C)C4CC4)cc3c12 [Compound 154, (R)-8-[(2-tert-Butoxycarbonylamino-propyl)-cyclopropyl-sulfamoyl]-4-oxo-4,5-dihydro-3H-pyrrolo[2,3-c]quinoline-1-propyl carboxylate] | 1 to 10
CCCOC(=O)c1c[nH]c2c(=O)[nH]c3ccc(S(=O)(=O)N(CCOCc4ccccc4)C4CC4)cc3c12 [Compound 181, 8-[(2-Benzyloxy-ethyl)-cyclopropyl-sulfamoyl]-4-oxo-4,5-dihydro-3H-pyrrolo[2,3-c]quinoline-1-propyl carboxylate] | 1 to 10
CCN(CC)CCOC(=O)c1c[nH]c2c(=O)[nH]c3ccc(F)cc3c12 [Compound 100, 8-Fluoro-4-oxo-4,5-dihydro-3H-pyrrolo[2,3-c]quinoline-1-carboxylate of 2-diethylaminoethyl] | 10 to 100
CCOC(=O)c1c[nH]c2c(=O)[nH]c3ccc(C(=O)CN4CCOCC4)cc3c12 [Compound 218, 8-(2-Morpholin-4-yl-acetyl)-4-oxo-4,5-dihydro-3H-pyrrolo[2,3-c]quinoline-ethyl carboxylate] | 1 to 10
C#CCN(CCNC)S(=O)(=O)c1ccc2[nH]c(=O)c3[nH]cc(C(=O)OCCC)c3c2c1 [Compound 156, 8-[(2-Methylamino-ethyl)-prop-2-ynyl-sulfamoyl]-4-oxo-4,5-dihydro-3H-pyrrolo[2,3-c]quinoline-1-propyl carboxylate hydrochloride] | < 0.1
COC(=O)c1c[nH]c2c(=O)[nH]c3ccccc3c12 [Compound 73, 4-Oxo-4,5-dihydro-3H-pyrrolo[2,3-c]quinoline-1-methyl carboxylate] | 1 to 10
CCOC(=O)c1c[nH]c2c(=O)[nH]c3ccc(-c4ccc(C#N)cc4)cc3c12 [Compound 247, 8-(4-Cyano-phenyl)-4-oxo-4,5-dihydro-3H-pyrrolo[2,3-c]quinoline-1-ethyl carboxylate] | 10 to 100
CC(=O)c1c[nH]c2c(=O)[nH]c3ccccc3c12 [Compound 77, 1-Acetyl-3,5-dihydro-pyrrolo[2,3-c]quinolin-4-one] | 10 to 100
CN(C(=O)OC(C)(C)C)C1CCN(S(=O)(=O)c2ccc3[nH]c(=O)c4[nH]cc(C(=O)O)c4c3c2)C1 (stereo not drawn) [Compound 170, 8-[3-(tert-Butoxycarbonyl-methyl-amino)-pyrrolidine-1-sulfonyl]-4-oxo-4,5-dihydro-3H-pyrrolo[2,3-c]quinoline-1-carboxylic acid] | 10 to 100
CCOC(=O)c1c[nH]c2c(=O)[nH]c3ccc(N(C)C)cc3c12 [Compound 62, 8-Dimethylamino-4-oxo-4,5-dihydro-3H-pyrrolo[2,3-c]quinoline-1-ethyl carboxylate] | 1 to 10
COC(=O)CCNC(=O)c1c[nH]c2c(=O)[nH]c3ccccc3c12 [Compound 81, 3-[(4-Oxo-4,5-dihydro-3H-pyrrolo[2,3-c]quinoline-1-carbonyl)-amino]-methyl propanoate] | 10 to 100
CCCOC(=O)c1c[nH]c2c(=O)[nH]c3ccc(S(=O)(=O)N(C)CC(=O)OC(C)(C)C)cc3c12 [Compound 183, 8-(tert-Butoxycarbonylmethyl-methyl-sulfamoyl)-4-oxo-4,5-dihydro-3H-pyrrolo[2,3-c]quinoline-1-propyl carboxylate] | 1 to 10
CCOC(=O)c1c[nH]c2c(=O)[nH]c3ccc(-c4csc(Nc5ccccc5Cl)n4)cc3c12 [Compound 272, 8-[2-(2-Chlorophenylamino)-thiazol-4-yl]-4-oxo-4,5-dihydro-3H-pyrrolo[2,3-c]quinoline-1-ethyl carboxylate] | 1 to 10
O=C(O)c1c[nH]c2c(=O)[nH]c3ccccc3c12 [Compound 75, 4-oxo-4,5-dihydro-3H-pyrrolo[2,3-c]quinoline-1-carboxylic acid] | 10 to 100
C#Cc1ccc2[nH]c(=O)c3[nH]cc(C(=O)OCC)c3c2c1 [Compound 199, 8-Ethynyl-4-oxo-4,5-dihydro-3H-pyrrolo[2,3-c]quinoline-1-ethyl carboxylate] | 1 to 10

Second part, the compound after the results:

IC50 [µM] | SMILES
0.1 to 1 | CCOC(=O)c1c[nH]c2c(=O)[nH]c3ccc(Sc4ccccc4)cc3c12 [Compound 220, 4-Oxo-8-phenylsulfanyl-4,5-dihydro-3H-pyrrolo[2,3-c]quinoline-1-ethyl carboxylate]
0.1 to 1 | CCOC(=O)c1c[nH]c2c(=O)[nH]c3ccc(CCc4ccccc4)cc3c12 [Compound 207, 4-Oxo-8-phenethyl-4,5-dihydro-3H-pyrrolo[2,3-c]quinoline-1-ethyl carboxylate]
0.1 to 1 | CCCOC(=O)c1c[nH]c2c(=O)[nH]c3ccc(S(=O)(=O)N(C)C4CCSCC4)cc3c12 [Compound 131, 8-[Methyl-(tetrahydro-thiopyran-4-yl)-sulfamoyl]-4-oxo-4,5-dihydro-3H-pyrrolo[2,3-c]quinoline-1-propyl carboxylate]
0.1 to 1 | CCOC(=O)c1c[nH]c2c(=O)[nH]c3ccc([S+]([O-])Cc4ccccc4)cc3c12 (stereo not drawn) [Compound 198, 4-Oxo-8-phenylmethanesulfinyl-4,5-dihydro-3H-pyrrolo[2,3-c]quinoline-1-ethyl carboxylate]
< 0.1 | CCCOC(=O)c1c[nH]c2c(=O)[nH]c3ccc(S(=O)(=O)N(C)CCN(C)C)cc3c12 [Compound 136, 8-[(2-Dimethylamino-ethyl)-methyl-sulfamoyl]-4-oxo-4,5-dihydro-3H-pyrrolo[2,3-c]quinoline-1-propyl carboxylate]
0.1 to 1 | CCOC(=O)c1c[nH]c2c(=O)[nH]c3ccc(NS(=O)(=O)Cc4ccccc4)cc3c12 [Compound 39, 4-Oxo-8-phenylmethanesulfonylamino-4,5-dihydro-3H-pyrrolo[2,3-c]quinoline-1-ethyl carboxylate]
0.1 to 1 | CCOC(=O)c1c[nH]c2c(=O)[nH]c3ccc(N(C)S(C)(=O)=O)cc3c12 [Compound 59, 8-(Methanesulfonyl-methyl-amino)-4-oxo-4,5-dihydro-3H-pyrrolo[2,3-c]quinoline-1-ethyl carboxylate]
0.1 to 1 | CCOC(=O)c1c[nH]c2c(=O)[nH]c3ccc(S(=O)(=O)Nc4cccc(O)c4)cc3c12 [Compound 15, 8-(3-Hydroxy-phenylsulfamoyl)-4-oxo-4,5-dihydro-3H-pyrrolo[2,3-c]quinoline-1-ethyl carboxylate]
< 0.1 | CCOC(=O)c1c[nH]c2c(=O)[nH]c3ccc(S(=O)(=O)Nc4ccc(F)cc4C)cc3c12 [Compound 17, 8-(4-Fluoro-2-methyl-phenylsulfamoyl)-4-oxo-4,5-dihydro-3H-pyrrolo[2,3-c]quinoline-1-ethyl carboxylate]
0.1 to 1 | CCOC(=O)c1c[nH]c2c(=O)[nH]c3ccc(NS(=O)(=O)c4ccc([N+](=O)[O-])cc4)cc3c12 [Compound 53, 8-(4-Nitro-benzenesulfonylamino)-4-oxo-4,5-dihydro-3H-pyrrolo[2,3-c]quinoline-1-ethyl carboxylate]
0.1 to 1 | CCOC(=O)c1c[nH]c2c(=O)[nH]c3ccc(S(=O)(=O)Nc4cccnc4)cc3c12 [Compound 23, 4-Oxo-8-(pyridin-3-ylsulfamoyl)-4,5-dihydro-3H-pyrrolo[2,3-c]quinoline-1-ethyl carboxylate]
< 0.1 | CCCOC(=O)c1c[nH]c2c(=O)[nH]c3ccc(S(=O)(=O)N(C)C4CC4)cc3c12 [Compound 125, 8-(Cyclopropyl-methyl-sulfamoyl)-4-oxo-4,5-dihydro-3H-pyrrolo[2,3-c]quinoline-1-propyl carboxylate]
0.1 to 1 | CCCOC(=O)c1c[nH]c2c(=O)[nH]c3ccc(S(=O)(=O)N(C)CCSC)cc3c12 [Compound 135, 8-[Methyl-(2-methylsulfanyl-ethyl)-sulfamoyl]-4-oxo-4,5-dihydro-3H-pyrrolo[2,3-c]quinoline-1-propyl carboxylate]
0.1 to 1 | CCOC(=O)c1c[nH]c2c(=O)[nH]c3ccc(S(=O)(=O)Nc4cc(F)cc(F)c4)cc3c12 [Compound 19, 8-(3,5-Difluorophenylsulfamoyl)-4-oxo-4,5-dihydro-3H-pyrrolo[2,3-c]quinoline-1-ethyl carboxylate]
0.1 to 1 | CCCOC(=O)c1c[nH]c2c(=O)[nH]c3ccc(S(=O)(=O)N(C)CCN(CC)CC)cc3c12 [Compound 138, 8-[(2-Diethylamino-ethyl)-methyl-sulfamoyl]-4-oxo-4,5-dihydro-3H-pyrrolo[2,3-c]quinoline-1-propyl carboxylate]
